Data as given in BindingDB's records for doi:10.1016/j.ejmech.2018.10.038 (Universities of Shandong, 2019).
pIC50: −log10 of the molar value.

Tests used:
[1] = Reversal of P-gp-mediated multidrug resistance in human KBV cells assessed as potentiation of paclitaxel-induced cytotoxicity by measuring paclitaxel IC50 at 5 uM after 72 hrs by MTT assay (Rvb = 1353.98 +/- 303.33 nM)
[2] = Reversal of P-gp-mediated multidrug resistance in human KBV cells assessed as potentiation of paclitaxel-induced cytotoxicity by measuring paclitaxel IC50 at 10 uM after 72 hrs by MTT assay (Rvb = 1353.98 +/- 303.33 nM)

SMILES | pIC50 [1] | pIC50 [2]
CC(C)(O)[C@H]1CC[C@@](C)([C@H]2CC[C@]3(C)[C@@H]2[C@H](O)C[C@@H]2[C@@]4(C)CC[C@H](N)C(C)(C)[C@@H]4CC[C@]23C)O1 | 6.87 | 7.32
CC(C)(C)OC(=O)NCCCCCC(=O)N[C@H]1CC[C@]2(C)[C@H]3C[C@@H](O)[C@@H]4[C@@H]([C@]5(C)CC[C@H](C(C)(C)O)O5)CC[C@@]4(C)[C@]3(C)CC[C@H]2C1(C)C | 7.32 | 7.55
